From patent US6521608B1, “Vitamin D and its analogs in the treatment of tumors and other hyperproliferative disorders” (Oregon Health & Science University, priority 1998, dated 2003)
Several values for one entry are separate records, joined by “and”; a condition that tells them apart may be missing. Equal entries are not always repeated. Where two headings read alike, the source gives them in different places.

Key:
[1] = relative to calcitriol = 1; cited from earlier work
[2] = test system: LNCaP human prostate cancer cells; conditions: LNCaP cells in vitro, Skowronski et al., cited from earlier work
[3] = test system: hormone refractory prostate cancer; conditions: daily oral dose of 0.5-1.5 mcg, fourteen patients; cited from earlier work
ovarian cancer = conditions: continuous dose; cited from earlier work
[4] = cited from earlier work
[5] = Trial of weekly pulse oral calcitriol: plasma/serum 1,25-dihydroxyvitamin D levels (radioimmunoassay, radioreceptor assay); assay type: in vivo, human; set-up: Mean 48 hour 1,25-dihydroxyvitamin D level: unit not given here; conditions: for Mean peak 1,25-dihydroxyvitamin D level: peak two hours after all pills; for Mean 48 hour 1,25-dihydroxyvitamin D level: trough approximately 48 hours later
Method: In this example a person with metastatic malignant melanoma of the right jaw received a dose of 37 mcg of calcitriol (Rocaltrol, Roche) administered as 74 tablets (0.5 mcg each tablet) divided into four nearly equal doses given in hour one, two, three and four. The patient received this same therapy on day 1, 8, 15 and 22, and observed until at least day 56. The level of calcitriol in a plasma sample obtained two hours after the last dose of calcitriol (on week one) was determined using a commercial assay at Endocrine Sciences, Inc. The level was 1826 pg/ml, compared to the range for calcitriol levels in normal controls being 21 to 65 pg/ml.
(§1) Patients were asked to maintain a reduced calcium diet for the four treatment weeks, with a goal of less than 500 mg per day, as described in Example 1. Calcitriol (Rocaltrol®, Roche Pharmaceuticals) was given orally once a week for four weeks. Each weekly dose was given in four divided doses given hourly over four hours. The starting dose was 0.06 μg/kg.
(§2) Complete blood count, serum creatinine, total serum bilirubin, ALT, alkaline phosphatase were monitored weekly. Serum calcium and phosphate were checked on the treatment day (day 1), and on days 2 and 3. Twenty-four hour urinary calcium excretion was measured on day 2. The 1,25-dihydroxyvitaunin D levels were measured by ^125I radioimmunoassay (Incstar, Stillwater, Minn.) and by a radioreceptor assay using calf thymus 1,25-dihydroxyvitamin D receptor (Endocrine Sciences, Calabasas Hills, Calif.). Peak levels were measured two hours after all the pills had been ingested. Trough levels were measured approximately 48 hours later.

myelodysplastic syndrome = conditions: 2 mcg daily for 8 weeks or longer, cited from earlier work
[6] = Trial of weekly pulse oral calcitriol: toxicities graded by NCI Common Toxicity Criteria; assay type: in vivo, human
Method: (§3) Eligibility criteria included histologically confirmed malignancy refractory to standard therapy; age ≧18 years; expected survival of >2 months; ECOG performance status ≦2; hematocrit ≧30; serum creatinine ≦1.2 mg/dL; serum calcium ≦10.5 mg/dL; serum phosphate <4.2 mg/dL; ALT ≦60 IUIL; total serum bilirubin <2 mg/dL. Exclusion criteria included pregnancy, history of hypercalcemia, kidney stones, heart failure or significant heart disease including myocardial infarction in the last 3 months, known cardiac ejection fraction less than 30%, current digoxin therapy, thiazide diuretic therapy within 7 days, bisphosphonate treatment within 4 weeks, systemic steroid therapy within 2 weeks, and unwillingness or inability to stop all magnesium containing antacids, bile resin binding drugs, or calcium supplements for the duration of the study.
as §1, §2
After completing the four week treatment period, patients were monitored for four additional weeks. Serum calcium was checked in weeks 5 and 7 and tumor measurements were obtained in week 7. […] Response was assessed according to WHO guidelines. […]

[7] = test system: breast carcinoma metastatic to the skeleton; assay: Case history: treatment of breast cancer with weekly pulse calcitriol; assay type: in vivo, human; conditions: 11 mcg po on day 1, 8, 15, 22; for serum tumor marker CA15-3: 445 pre-treatment
Text: In this example, a person with breast carcinoma metastatic to numerous sites in the skeleton received a dose of 11 mcg of calcitriol (Rocaltrol, Roche) administered as […] (0.5 mcg each tablet) divided into four nearly equal doses given in hour one, two, three and four. The patient received this same therapy on day 1, 8, 15 and 22, and then was observed on study until day 56, and tolerated the treatment well. […] Objective benefits included a progressive decrease in the serum tumor marker CA15-3 from 445 (pre-treatment) to 365 (day 27), 365 (day 48) and 320 (day 70). […] No new lesions or pathologic fractures identified were identified by day 64.

[8] = Trial of weekly pulse oral calcitriol: serum calcium, serum phosphate, 24 hour urinary calcium; assay type: in vivo, human; conditions: for Mean serum phosphate: 3.43 (SD 0.56) prior to treatment; for Mean serum calcium: 9.55 (SD 0.57) prior to treatment
Method: as §1, §2

[9] = test system: malignancy refractory to standard therapy; assay: Trial of weekly pulse oral calcitriol: tumor response (WHO guidelines, tumor markers); assay type: in vivo, human
Method: as §3, §1
After completing the four week treatment period, patients were monitored for four additional weeks. Serum calcium was checked in weeks 5 and 7 and tumor measurements were obtained in week 7. All toxicities were graded according to NCI Common Toxicity Criteria. Response was assessed according to WHO guidelines.

[10] = single oral dose of 4 mcg, healthy volunteers, Mason et al.

C=C1/C(=C\C=C2/CCC[C@]3(C)[C@@H]([C@H](C)CCCC(C)(C)O)CC[C@@H]23)C[C@@H](O)C[C@@H]1O [calcitriol, 1α,25-dihydroxycholecalciferol]
calcemic index (CI) [1]: 1 | concentration giving measurable growth inhibition [2]: 0.1 nM | IC50 ([2]; read-out: concentration giving 50% growth inhibition): 1 nM | patients who experienced hypercalcemia [3]: Thirteen | response [3]: no significant response was demonstrated | hypercalcemia (ovarian cancer): encountered hypercalcemia | peak 1,25-dihydroxyvitamin D serum concentrations ([4]; 2 mcg single oral dose, healthy volunteers, Papapoulus et al.): 0.235 nM and 0.351 nM | patients with a serum calcium above 10.8 ([4]; 4 mcg per day for 4 days, postmenopausal women, no clinically significant hypercalcemia, Geusens et al.): Four of the 27 | peak of stable serum levels of 1,25-dihydroxyvitamin D ([4]; 32 mcg/day for 3 months, patients with osteopetrosis, no hypercalcemia, Key et al.): 2.32 nM | duration of hypercalcemic effect ([4]; in vivo): 3 to 5 days | serum half life ([4]; in vivo): 3 to 6 h | time after administration at which intestinal absorption of calcium begins to increase ([4]; in vivo): 2 h | time of maximal hypercalcemic effect ([4]; in vivo): 10 h | time at which peak serum concentration is reached ([4]; replacement therapy doses): 2 h | peak 1,25-dihydroxyvitamin D serum concentrations [4, 10]: 0.42 nM | serum calcium [4, 10]: no elevation in serum calcium | serum calcium ([4]; up to 2.7 mcg/day for 7 to 15 days, normal volunteers, Brickman et al.): no significant elevations in serum calcium were observed | stable 1,25-dihydroxyvitamin D serum levels ([4]; up to 3 mcg/day for 6-12 days, normal volunteers, Adams et al.): 0.184 to 0.235 nM | elevation in serum calcium ([4]; up to 3 mcg/day for 6-12 days, patients on a low calcium diet, Adams et al.): None of the patients | Serum 1,25-dihydroxyvitamin D trough levels ([5]; 48 hours, normal range 0.05-0.16 nM): returned to normal or near normal levels by 48 hours | Mean peak 1,25-dihydroxyvitamin D level ([5]; dose level 0.06 μg/kg po over four hours, 1 patient): 0.71 nM | Mean 48 hour 1,25-dihydroxyvitamin D level ([5]; dose level 0.06 μg/kg po): 0.27 | Mean peak 1,25-dihydroxyvitamin D level ([5]; dose level 0.24 μg/kg po over four hours, 1 patient): 2.27 nM | Mean 48 hour 1,25-dihydroxyvitamin D level ([5]; dose level 0.24 μg/kg po): 0.21 | Mean peak 1,25-dihydroxyvitamin D level ([5]; dose level 0.48 μg/kg po over four hours, 2 patients): 4.11 nM | Mean 48 hour 1,25-dihydroxyvitamin D level ([5]; dose level 0.48 μg/kg po): 0.23 | Mean peak 1,25-dihydroxyvitamin D level ([5]; dose level 0.80 μg/kg po over four hours, 1 patient): 3.53 nM | Mean peak 1,25-dihydroxyvitamin D level ([5]; dose level 0.96 μg/kg po over four hours, 1 patient): 3.83 nM | Mean peak 1,25-dihydroxyvitamin D level ([5]; dose level 1.60 μg/kg po over four hours, 2 patients): 3.65 nM | Mean peak 1,25-dihydroxyvitamin D level ([5]; dose level 1.92 μg/kg po over four hours, 1 patient): 3.34 nM | Mean peak 1,25-dihydroxyvitamin D level ([5]; dose level 2.00 μg/kg po over four hours, 6 patients): 4.07 nM | Mean 48 hour 1,25-dihydroxyvitamin D level ([5]; dose level 2.00 μg/kg po): 0.26 | Mean peak 1,25-dihydroxyvitamin D level ([5]; dose level 2.80 μg/kg po over four hours, 2 patients): 2.96 nM | effect of dose escalation beyond 0.48 μg/kg on peak calcitriol levels ([5]; dose levels up to 2.80 μg/kg po): did not result in further increases in peak calcitriol levels | concentration at 2 h ([5]; male, human, plasma, melanoma patient, 37 mcg po in four hourly doses, sample two hours after the last dose, week one, normal controls 21 to 65 pg/ml, read-out: level of calcitriol in plasma): 1.83 ng/mL | Peak blood levels of calcitriol above the upper limit of normal ([5]; pulsed weekly administration): about 25 fold | clearance of calcitriol from the blood ([5]; weekly pulse schedule): essentially completely cleared from the blood by day 3 | peak blood calcitriol levels in patients ([5]; weekly pulse schedule, highest level seen): up to 8.9 nM | patients who experienced symptomatic hypercalcemia (myelodysplastic syndrome; 18 patients): 4 | patients with minor and transient improvements in the peripheral blood counts (myelodysplastic syndrome): Eight of 18 | deaths in the trial ([6]; 15 patients, 20 cycles): No deaths occurred | intermittent dose tolerated without hypercalcemia ([6]; given intermittently): ≤ 0.48 µg/kg | dose-limiting hypercalcemic toxicity ([6]; in vivo): No patient developed dose-limiting hypercalcemic toxicity | Radiologic evaluation of areas of known bony involvement [7]: progressive sclerosis of multiple lesions in the pelvis and right hip | Subjective beneficial effects [7]: a reduction in pain and in analgesia required | serum tumor marker CA15-3 ([7]; day 27): 365 | serum tumor marker CA15-3 ([7]; day 48): 365 | serum tumor marker CA15-3 ([7]; day 70): 320 | serum calcium and other chemical and hematological parameters, melanoma patient ([8]; 37 mcg po on day 1, 8, 15, 22): remained normal | Mean serum phosphate ([8]; 24 hours after dose, normal range 2.2-4.2): 3.98 (SD 0.57) mg/dL | Mean serum calcium ([8]; 24 hours after dose, normal range 8.5-10.5): 9.76 (SD 0.63) mg/dL | Mean serum phosphate ([8]; 48 hours after dose, p<0.0001): 3.86 (SD 0.53) mg/dL | Mean serum calcium ([8]; 48 hours after dose, p=0.0002): 9.88 (SD 0.68) mg/dL | time for calcium levels above the normal range to return to normal ([8]; no intervention): ≤ 2 days | 24 hour urinary calcium excretion, range ([8]; on treatment, day 2 of each treatment week, 44-292 prior to treatment): 59 to 594 mg | Mean 24 hour urinary calcium excretion ([8]; on treatment, day 2 of each treatment week, 130 (SD 62) prior to treatment, normal range 100-300): 263 (SD 125) mg | decline in serum AFP level ([9]; hepatocellular carcinoma patient, two cycles (0.80 and 1.60 μg/kg)): 70% | patients with measurable disease with evidence of progressive disease ([9]; of eight patients): three | patients without measurable disease with tumor marker or clinical evidence of progressive disease ([9]; of seven patients): three | PSA course in a prostate cancer patient ([9]; two cycles of therapy, rapidly rising PSA prior to enrollment): stable PSA for the entire 16 weeks | patients without measurable disease with no evidence of progression ([9]; weekly pulse calcitriol): Four of seven | patients with measurable disease who had stable disease ([9]; weekly pulse calcitriol, tumor measurements week 7): Five of eight
